Earlier results in patent US6833085B2, “Agent for restricting elution of phosphorus, method for producing the same, and method of restricting elution of phosphorus in sludge” (priority 2003, dated 2004).
Like-named read-outs stand apart in the source and are kept apart here.

Details: for Amount of diluted phosphorus: aqueous solution added into sludge

O=[N+]([O-])[O-].O=[N+]([O-])[O-].[Ca+2] [Calcium nitrate, calcium nitrate]
Amount of diluted phosphorus (concentration 0.35%): 67 µg/L | Amount of diluted phosphorus (concentration 0.70%): 13 µg/L | Inhibition of elution of phosphorus (injecting a 0.7% aqueous solution): 98%

[Cl][Fe]([Cl])[Cl] [Ferric chloride, ferric chloride]
Amount of diluted phosphorus (concentration 0.16%): 234 µg/L | Amount of diluted phosphorus (concentration 0.32%): 402 µg/L

alum
Amount of diluted phosphorus (concentration 0.21%): 407 µg/L | Amount of diluted phosphorus (concentration 0.42%): 490 µg/L
